Measured values published in publication PMC11554605, “Pharmacological differences between human and mouse P2X4 receptor explored using old and new tools” (Purinergic Signalling, 2024).
“Also recorded” adds a separate entry of the source. Read-outs that look alike come from different tables or passages of the source.

Columns and labels:
[1] = target: T1, mouse P2X4 (Mus musculus, UniProt Q9JJX6); experiment: Intracellular Ca2+ assay, antagonists against Ca2+ responses evoked by EC80 ATP (1.5 µM) in 1321N1 cells expressing mouse P2X4; format: cell-based
T1 construct: expressed in transfected cells
T1 sequence (Q9JJX6 1-388): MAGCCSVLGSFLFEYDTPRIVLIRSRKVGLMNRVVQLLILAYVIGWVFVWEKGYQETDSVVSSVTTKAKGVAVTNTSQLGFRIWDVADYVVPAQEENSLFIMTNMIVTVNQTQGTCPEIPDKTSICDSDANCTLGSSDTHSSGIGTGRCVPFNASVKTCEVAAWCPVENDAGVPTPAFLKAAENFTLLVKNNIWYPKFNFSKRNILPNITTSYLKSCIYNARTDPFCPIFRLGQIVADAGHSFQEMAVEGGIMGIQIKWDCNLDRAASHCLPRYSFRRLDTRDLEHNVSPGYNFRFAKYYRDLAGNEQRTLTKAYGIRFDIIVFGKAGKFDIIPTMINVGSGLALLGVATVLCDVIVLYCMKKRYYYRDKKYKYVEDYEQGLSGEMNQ

[2] = target: T2, human P2X4 (Homo sapiens, UniProt Q99571); experiment: Intracellular Ca2+ assay, antagonists against Ca2+ responses evoked by EC80 ATP (1.5 µM) in 1321N1 cells expressing human P2X4; format: cell-based
T2 construct: expressed in transfected cells
T2 sequence (Q99571 1-388): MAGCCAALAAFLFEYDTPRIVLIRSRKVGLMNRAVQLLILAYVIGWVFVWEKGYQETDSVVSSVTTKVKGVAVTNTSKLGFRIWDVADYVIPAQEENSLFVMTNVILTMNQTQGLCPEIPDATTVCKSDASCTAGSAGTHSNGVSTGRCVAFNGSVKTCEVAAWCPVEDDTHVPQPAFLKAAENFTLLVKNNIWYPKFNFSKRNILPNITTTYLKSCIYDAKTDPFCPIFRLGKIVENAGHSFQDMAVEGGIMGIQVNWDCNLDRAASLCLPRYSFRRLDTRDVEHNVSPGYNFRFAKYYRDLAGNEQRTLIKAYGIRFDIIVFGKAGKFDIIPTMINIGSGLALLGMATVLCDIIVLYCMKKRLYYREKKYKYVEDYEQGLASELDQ

[3] = target: T2, human P2X4; settings: cited from earlier work
[4] = target: T1, mouse P2X4; experiment: Intracellular Ca2+ assay (Fura-2, FlexStation 3), agonist responses in 1321N1 cells stably expressing mouse P2X4; format: cell-based; settings: for Emax: 1321-N1, read-out: Efficacy Mouse (maximal response to ligand as a percentage of maximal response to ATP); for EC50: 1321N1 cells expressing mouse P2X4, peak Ca2+ response
[5] = target: T2, human P2X4; experiment: Intracellular Ca2+ assay (Fura-2, FlexStation 3), agonist responses in 1321N1 cells stably expressing human P2X4; format: cell-based; settings: for Emax: 1321-N1, read-out: Efficacy Human (maximal response to ligand as a percentage of maximal response to ATP)
[6] = system: rat P2X4; settings: cited from earlier work
[7] = target: T1, mouse P2X4; settings: cited from earlier work
[8] = 100 µM antagonist, vs 1.5 µM ATP
[9] = 1321N1 cells expressing human P2X4, peak Ca2+ response, read-out: EC50 Human
[10] = 20 µM antagonist, vs 1.5 µM ATP
[11] = 30 µM antagonist, vs 1.5 µM ATP
[12] = 10 µM antagonist, vs 1.5 µM ATP

Cc1ccc(C(=O)Nc2ccc(S(=O)(=O)O)c3cc(S(=O)(=O)O)cc(S(=O)(=O)O)c23)cc1NC(=O)c1cccc(NC(=O)Nc2cccc(C(=O)Nc3cc(C(=O)Nc4ccc(S(=O)(=O)O)c5cc(S(=O)(=O)O)cc(S(=O)(=O)O)c45)ccc3C)c2)c1 [suramin, 8,8′-{Carbonylbis[imino-3,1-phenylenecarbonylimino(4-methyl-3,1-phenylene)carbonylimino]}di(1,3,5-naphthalenetrisulfonic acid)]
Antagonist action at mouse P2X4 (in words) ([1]; up to 100 µM): completely insensitive | Antagonist action at human P2X4 (in words) ([2]; up to 100 µM): completely insensitive

Cc1nc(/N=N/c2ccc(S(=O)(=O)O)cc2S(=O)(=O)O)c(COP(=O)(O)O)c(C=O)c1O [PPADS, Pyridoxalphosphate-6-azophenyl-2′,4′-disulfonic acid]
Antagonist action at human P2X4 (literature) ([3]; ref 16-18): inhibit the human P2X4 receptor fully | % inhibition Mouse [1, 8]: 87 ± 16%(100 µM) | % inhibition Human [2, 8]: 98 ± 3% (100 µM)

CSc1nc(N)c2ncn([C@@H]3O[C@H](COP(=O)(O)OP(=O)(O)OP(=O)(O)O)[C@@H](O)[C@H]3O)c2n1 [2-MeSATP, 2-(Methylthio)adenosine 5′-triphosphate]
Emax [4]: 65 ± 2% | EC50 [4]: 8 ± 2 µM | Agonist action at mouse P2X4 (in words) ([4]; mouse P2X4): partial agonist | Emax [5]: 57 ± 6% | EC50 [5, 9]: 2 ± 0.2 µM | Agonist action at human P2X4 (in words) ([5]; human P2X4): partial agonist

Cc1ccc(S(=O)(=O)N2c3ccccc3Oc3ccccc32)cc1 [PSB-12062, N-(p-methylphenylsulfonyl)phenoxazine]
% inhibition Mouse [1, 10]: 59 ± 7% (20 µM) | IC50 ([1]; read-out: IC50 Mouse): 3 ± 2 µM | % inhibition Human [2, 10]: 99 ± 4% (20 µM) | Antagonist action at human P2X4 (in words) ([2]; vs 1.5 µM ATP): abolished activity

Nc1ccn([C@@H]2O[C@H](COP(=O)(O)OP(=O)(O)OP(=O)(O)O)[C@@H](O)[C@H]2O)c(=O)n1 [CTP, Cytidine 5′-triphosphate]
Emax [4]: 89 ± 5% | Agonist action at mouse P2X4 (in words) ([4]; mouse P2X4): full agonist | Emax [5]: 67 ± 6% | Agonist action at human P2X4 (in words) ([5]; human P2X4): partial agonist

O=C1CN=C(c2cccc(Br)c2)c2oc3ccccc3c2N1 [5-BDBD, 5-(3-Bromophenyl)-1,3-dihydro-2H-benzofuro[3,2-e]-1,4-diazepin-2-one]
Antagonist action at rat P2X4 (literature) ([6]; ref 37): sensitivity | % inhibition Mouse [1, 11]: 10 ± 8% (30 µM) | Antagonist action at mouse P2X4 (in words) ([1]; up to 100 µM): insensitive | Antagonist action at mouse P2X4 (in words) ([1]; vs 1.5 µM ATP): not antagonised; also recorded: not an antagonist | % inhibition Human [2, 11]: 97 ± 3% (30 µM) | Antagonist action at human P2X4 (in words) ([2]; vs 1.5 µM ATP): completely inhibit

Nc1ncnc2c1ncn2C1OC(COP(=O)(O)OP(=O)(O)OP(=O)(O)O)C(OC(=O)c2ccc(C(=O)c3ccccc3)cc2)C1O (stereo not drawn) [BzATP, 2′(3′)-O-(4-Benzoylbenzoyl)adenosine 5′-triphosphate]
Emax [4]: 27 ± 2% | EC50 [4]: 24 ± 16 µM | Agonist action at mouse P2X4 (in words) ([4]; mouse P2X4): partial agonist | Emax [5]: 35 ± 4% | EC50 [5, 9]: 11 ± 2 µM | Agonist action at human P2X4 (in words) ([5]; human P2X4): partial agonist

Nc1ncnc2c1ncn2[C@@H]1O[C@H](CO[P@](=O)(O)O[P@](=O)(O)O[P@@](=O)(O)S)[C@@H](O)[C@H]1O [ATPγS, Adenosine-5′-O-(3-thio-triphosphate)]
Agonist action at human P2X4 (literature) ([3]; ref 33): partial agonism | Emax [4]: 45 ± 4% | EC50 [4]: 18 ± 1 µM | Agonist action at mouse P2X4 (in words) ([4]; mouse P2X4): partial agonist | Emax [5]: 9 ± 3% | Agonist action at human P2X4 (in words) ([5]; human P2X4): did not activate; also recorded: not activated | Agonist action at human P2X4 (in words) ([5]; up to 300 µM): does not activate

Nc1ncnc2c1ncn2[C@@H]1O[C@H](COP(=O)(O)OP(=O)(O)OP(=O)(O)O)[C@H]2OC3(O[C@H]21)C([N+](=O)[O-])=CC(=[N+]([O-])[O-])C=C3[N+](=O)[O-] (stereo partly drawn) [TNP-ATP, 2′,3′-O-(2,4,6-Trinitrophenyl)-ATP]
IC50 [1]: 93 ± 4 µM | % inhibition Mouse [1, 8]: 43 ± 7% (100 µM) | Antagonist action at human P2X4 (in words) [2]: completely inhibited | % inhibition Human [2, 8]: 94 ± 1% (100 µM)

CC(C)c1cc(Br)c(NC(=O)Nc2cccnc2)c(Br)c1 [BX-430, 1-(2,6-Dibromo-4-isopropyl-phenyl)-3-(3-pyridyl)urea]
% inhibition Mouse [1, 12]: 0 ± 3% (10 µM) | Antagonist action at mouse P2X4 (in words) ([1]; up to 100 µM): insensitive | Antagonist action at mouse P2X4 (in words) ([1]; vs 1.5 µM ATP): not antagonised | % inhibition Human [2, 12]: 96 ± 3% (10 µM) | Antagonist action at human P2X4 (in words) ([2]; vs 1.5 µM ATP): abolished receptor activity

Nc1ncnc2c1ncn2C1OC(COP(=O)(O)CP(=O)(O)OP(=O)(O)O)C(O)C1O (stereo not drawn) [α,β-meATP, α,β-Methyleneadenosine 5′-triphosphate]
Emax [4]: 5 ± 2% | Agonist action at mouse P2X4 (in words) ([4]; mouse P2X4): no significant effect | EC50 [5]: 7 ± 0.7 µM | Emax [5]: 15 ± 2% | Agonist action at human P2X4 (in words) ([5]; human P2X4): can be activated; also recorded: weak partial agonist

Nc1ncnc2c1ncn2[C@@H]1O[C@H](COP(=O)(O)OP(=O)(O)OP(=O)(O)O)[C@@H](O)[C@H]1O [ATP, adenosine 5′-triphosphate]
EC50 [4]: 0.565 ± 0.085 µM | EC50 [5, 9]: 0.747 ± 0.18 µM | EC80 ([5]; human P2X4): 1.5 ± 0.3 µM

NS(=O)(=O)c1cc(NC(=O)Cc2ccccc2)ccc1Oc1cccc(Cl)c1 [BAY-1797, N-[4-(3-Chlorophenoxy)-3-sulfamoylphenyl]-2-phenylacetamide]
% inhibition Mouse [1, 12]: 99 ± 2% (10 µM)

Nc1ncnc2c1ncn2[C@@H]1O[C@H](COP(=O)(O)OP(=O)(O)OP(=O)(O)OP(=O)(O)OC[C@H]2O[C@@H](n3cnc4c(N)ncnc43)[C@H](O)[C@@H]2O)[C@@H](O)[C@H]1O [Ap4A, Diadenosine tetraphosphate]
Agonist potency at rat P2X4 (literature) ([6]; ref 36): equipotent with ATP | Agonist action at human P2X4 (literature) ([3]; ref 35, ref 17): activation of human P2X4 by Ap4A at nanomolar concentrations | Agonist action at mouse P2X4 (in words) ([4]; mouse P2X4): not an agonist | Agonist action at mouse P2X4 (in words) ([4]; tested up to 1 mM): did not activate | Agonist action at human P2X4 (in words) ([5]; tested up to 1 mM): did not activate | Agonist action at mouse P2X4 (literature) ([7]; ref 17): activates mouse P2X4 at low micromolar concentrations | Agonist action at mouse P2X4 (literature) ([7]; ref 35): insensitive

C#CCNP(=O)(O)OP(=O)(O)OP(=O)(O)OCC1OC(n2cnc3c(N)ncnc32)C(O)C1O (stereo not drawn) [γ-[(Propargyl)-imido]-ATP, Adenosine-5′-[γ-(propargyl)-imido]triphosphate]
Emax [4]: 90 ± 11% | EC50 [4]: 20 ± 2 µM | Agonist action at mouse P2X4 (in words) ([4]; mouse P2X4): full agonist | Emax [5]: 85 ± 5% | EC50 [5, 9]: 20 ± 2 µM | Agonist action at human P2X4 (in words) ([5]; human P2X4): partial agonism
